What all share (experiment): LC-DAD of product
Common to all, as to format: biochemical
What all share (details): S-adenosyl-L-methionine co-substrate, pH 7.5, 28 °C, 2 h

Test [1] has as its target T1, Gmγ-TMT1 (Glycine max, UniProt A0A4D6BQA3).
T1 sequence (A0A4D6BQA3 1-296): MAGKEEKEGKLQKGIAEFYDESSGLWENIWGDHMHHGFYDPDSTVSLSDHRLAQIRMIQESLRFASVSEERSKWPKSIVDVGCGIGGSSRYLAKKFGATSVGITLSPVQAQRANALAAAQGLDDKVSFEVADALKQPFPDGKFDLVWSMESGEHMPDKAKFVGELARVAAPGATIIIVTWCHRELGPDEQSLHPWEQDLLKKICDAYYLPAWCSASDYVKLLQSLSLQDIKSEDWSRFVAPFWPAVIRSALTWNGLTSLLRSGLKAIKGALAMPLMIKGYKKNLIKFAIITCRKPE

The target in test [2] is T2, Gmγ-TMT3 (Glycine max, UniProt A0A4D6BMW5).
T2 sequence (A0A4D6BMW5 1-302): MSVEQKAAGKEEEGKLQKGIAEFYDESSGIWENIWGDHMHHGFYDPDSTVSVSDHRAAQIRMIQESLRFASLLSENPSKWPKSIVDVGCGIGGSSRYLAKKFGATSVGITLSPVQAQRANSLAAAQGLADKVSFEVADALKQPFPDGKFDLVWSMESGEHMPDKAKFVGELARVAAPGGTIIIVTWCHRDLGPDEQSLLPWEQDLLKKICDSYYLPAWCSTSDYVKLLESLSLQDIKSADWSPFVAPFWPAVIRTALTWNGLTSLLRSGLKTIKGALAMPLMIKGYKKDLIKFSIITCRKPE

Test [3] has as its target T3, Gmγ-TMT2 (Glycine max, UniProt Q56GA2).
T3 sequence (Q56GA2 51-350): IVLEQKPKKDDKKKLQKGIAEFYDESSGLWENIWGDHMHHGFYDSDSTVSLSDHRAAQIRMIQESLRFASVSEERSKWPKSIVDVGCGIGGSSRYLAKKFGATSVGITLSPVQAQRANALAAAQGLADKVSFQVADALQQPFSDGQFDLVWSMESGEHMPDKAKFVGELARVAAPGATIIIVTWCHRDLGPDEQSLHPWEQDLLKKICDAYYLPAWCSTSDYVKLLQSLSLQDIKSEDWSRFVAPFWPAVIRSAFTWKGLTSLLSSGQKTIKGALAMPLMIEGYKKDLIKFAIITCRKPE

As for `Cc1c(O)cc2c(c1C)O[C@](C)(CCC[C@H](C)CCC[C@H](C)CCCC(C)C)CC2` [γ-T], the activity result in test [1] was “Gmγ-TMT3 had three-fold higher activity toward γ-T than Gmγ-TMT1 and Gmγ-TMT2”; in test [2], “Gmγ-TMT3 had three-fold higher activity toward γ-T than Gmγ-TMT1 and Gmγ-TMT2”; in test [3], “Gmγ-TMT3 had three-fold higher activity toward γ-T than Gmγ-TMT1 and Gmγ-TMT2”.

The values are drawn from article PMC10504561 (Plant Communications, 2023).
